Drawing on US20230159532A1, “PARATHYROID HORMONE (PTH) RECEPTOR ANTAGONISTS AND USES THEREOF” (Crinetics Pharmaceuticals, Inc., priority 2021, published 2023), this text covers Ki for 9 compounds.

Each structure is given as a SMILES string.

The target of this assay is T1, human PTHR1 receptor (Homo sapiens, UniProt Q03431).
T1 construct: purchased Eurofins HTS030M
T1 sequence (Q03431 27-593): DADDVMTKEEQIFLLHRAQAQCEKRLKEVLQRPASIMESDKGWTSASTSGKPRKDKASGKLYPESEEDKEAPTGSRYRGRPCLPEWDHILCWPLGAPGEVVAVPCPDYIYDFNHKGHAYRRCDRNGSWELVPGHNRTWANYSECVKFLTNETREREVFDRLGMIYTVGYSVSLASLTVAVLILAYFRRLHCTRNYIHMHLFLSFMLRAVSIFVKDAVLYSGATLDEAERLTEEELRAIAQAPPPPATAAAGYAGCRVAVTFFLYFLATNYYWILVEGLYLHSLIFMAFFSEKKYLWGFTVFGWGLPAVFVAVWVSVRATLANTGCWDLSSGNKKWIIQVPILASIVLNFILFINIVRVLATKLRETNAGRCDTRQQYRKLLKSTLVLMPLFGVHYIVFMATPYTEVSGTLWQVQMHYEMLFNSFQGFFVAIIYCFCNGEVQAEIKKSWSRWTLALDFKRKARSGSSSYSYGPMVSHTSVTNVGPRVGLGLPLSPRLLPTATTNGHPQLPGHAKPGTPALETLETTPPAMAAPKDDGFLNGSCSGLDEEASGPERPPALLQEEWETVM
Description: Competitive antagonist binding assay for hPTH-R1 (radioactive competition binding, SPA beads). The following applies: human PTHR1 membranes, [125I]-[Nle8,18,Tyr34]-PTH(1-34) 0.2 nM, 90 minutes at room temperature; read-out: hPTHR1 Ki. In outline:
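Displacement of 0.2 nM radioiodinated [Nle8,18,Tyr34]-PTH(1-34) from membrane-bound human PTHR1 measured by scintillation proximity after 90 min at room temperature. Compounds typically 0-10,000 nM final, pH 7.4 HEPES/Mg/Ca buffer with BSA and detergent. Ki calculated from competition data.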
In general, Ki refers to a measure of affinity in units of concentration, obtained from inhibition or displacement. As to `CCN1C(=O)N(c2c(F)cc(N[C@H](C)CNC)cc2F)c2cc(C#N)ccc2-c2cc(Cl)cnc21` [1-159, 4-chloro-10-(2,6-difluoro-4-{[(2R)-1-(methylamino)propan-2-yl]amino}phenyl)-8-ethyl-9-oxo-6,8,10-triazatricyclo[9.4.0.0^2,7]pentadeca-1(11),2(7),3,5,12,14-hexaene-13-carbonitrile], the Ki was below 0.1 µM.

Turning to `CCN1C(=O)N(c2c(F)cc(NCCNCC#N)cc2F)c2cc(C#N)ccc2-c2cc(Cl)cnc21` [1-160, 4-chloro-10-[4-({2-[(cyanomethyl)amino]ethyl}amino)-2,6-difluorophenyl]-8-ethyl-9-oxo-6,8,10-triazatricyclo[9.4.0.0^2,7]pentadeca-1(11),2(7),3,5,12,14-hexaene-13-carbonitrile], the Ki lay within 0.1 to 1 µM.

Regarding `CCN1C(=O)N(c2c(F)cc(NCCNCCC(N)=O)cc2F)c2cc(C#N)ccc2-c2cc(Cl)cnc21` [1-161, 3-({2-[(4-{4-chloro-13-cyano-8-ethyl-9-oxo-6,8,10-triazatricyclo[9.4.0.0^2,7]pentadeca-1(11),2(7),3,5,12,14-hexaen-10-yl}-3,5-difluorophenyl)amino]ethyl}amino)propanamide], the Ki was below 0.1 µM. The result for `CCN1C(=O)N(c2c(F)cc(NCCNCC(N)=O)cc2F)c2cc(C#N)ccc2-c2cc(Cl)cnc21` [1-162, 2-({2-[(4-{4-chloro-13-cyano-8-ethyl-9-oxo-6,8,10-triazatricyclo[9.4.0.0^2,7]pentadeca-1(11),2(7),3,5,12,14-hexaen-10-yl}-3,5-difluorophenyl)amino]ethyl}amino)acetamide] reads below 0.1 µM; that for `CC(C)N1C(=O)N(c2c(F)cc(NCCNCCCC(=O)O)cc2F)c2cc(C#N)cc(F)c2-c2cc(F)cnc21` [1-163, 4-{[2-({4-[13-cyano-4,15-difluoro-9-oxo-8-(propan-2-yl)-6,8,10-triazatricyclo[9.4.0.0^2,7]pentadeca-1(15),2(7),3,5,11,13-hexaen-10-yl]-3,5-difluorophenyl}amino)ethyl]amino}butanoic Acid], below 0.1 µM. The figure for `CCN1C(=O)N(c2c(F)cc(NCCN3CCC(O)C3)cc2F)c2cc(C#N)ccc2-c2cc(Cl)cnc21` (stereo not drawn) [1-164, 4-chloro-10-(2,6-difluoro-4-{[2-(3-hydroxypyrrolidin-1-yl)ethyl]amino}phenyl)-8-ethyl-9-oxo-6,8,10-triazatricyclo[9.4.0.0^2,7]pentadeca-1(11),2(7),3,5,12,14-hexaene-13-carbonitrile] is below 0.1 µM; for `CCN1C(=O)N(c2c(F)cc(N[C@@H](C)CNC)cc2F)c2cc(C#N)ccc2-c2cc(Cl)cnc21` [1-165, 4-chloro-10-(2,6-difluoro-4-{[(2S)-1-(methylamino)propan-2-yl]amino}phenyl)-8-ethyl-9-oxo-6,8,10-triazatricyclo[9.4.0.0^2,7]pentadeca-1(11),2(7),3,5,12,14-hexaene-13-carbonitrile] it is below 0.1 µM; for `CCN1C(=O)N(c2c(F)cc(NCCNCCNC(=O)NC)cc2F)c2cc(C#N)ccc2-c2cc(Cl)cnc21` [1-166, 1-[2-({2-[(4-{4-chloro-13-cyano-8-ethyl-9-oxo-6,8,10-triazatricyclo[9.4.0.0^2,7]pentadeca-1(11),2(7),3,5,12,14-hexaen-10-yl}-3,5-difluorophenyl)amino]ethyl}amino)ethyl]-3-methylurea] it is below 0.1 µM. The result for `CCN1C(=O)N(c2c(F)cc(NCCNCCNC(=O)OC)cc2F)c2cc(C#N)ccc2-c2cc(Cl)cnc21` [1-167, Methyl N-[2-({2-[(4-{4-chloro-13-cyano-8-ethyl-9-oxo-6,8,10-triazatricyclo[9.4.0.0^2,7]pentadeca-1(11),2(7),3,5,12,14-hexaen-10-yl}-3,5-difluorophenyl)amino]ethyl}amino)ethyl]carbamate] reads below 0.1 µM.
